Assay results from patent US20080109040A1, “METHOD OF TREATING ARRHYTHMIAS” (priority 2002, published 2008).
“Also recorded” adds a separate entry of the source.

Assays:
[1] = molecular target: T1, slowly activating component of the delayed rectifier current (IKs) (Canis lupus familiaris, UniProt A0A8I3N8W8); experiment: Whole cell voltage clamp of IKs tail current in isolated canine left ventricular myocytes; assay type: cell-based
T1 construct: Myocytes were isolated by enzymatic dissociation from a wedge-shaped section of the left ventricular free wall; endogenous in cells; host or cells: isolated canine left ventricular myocytes
T1 sequence (A0A8I3N8W8 1-676): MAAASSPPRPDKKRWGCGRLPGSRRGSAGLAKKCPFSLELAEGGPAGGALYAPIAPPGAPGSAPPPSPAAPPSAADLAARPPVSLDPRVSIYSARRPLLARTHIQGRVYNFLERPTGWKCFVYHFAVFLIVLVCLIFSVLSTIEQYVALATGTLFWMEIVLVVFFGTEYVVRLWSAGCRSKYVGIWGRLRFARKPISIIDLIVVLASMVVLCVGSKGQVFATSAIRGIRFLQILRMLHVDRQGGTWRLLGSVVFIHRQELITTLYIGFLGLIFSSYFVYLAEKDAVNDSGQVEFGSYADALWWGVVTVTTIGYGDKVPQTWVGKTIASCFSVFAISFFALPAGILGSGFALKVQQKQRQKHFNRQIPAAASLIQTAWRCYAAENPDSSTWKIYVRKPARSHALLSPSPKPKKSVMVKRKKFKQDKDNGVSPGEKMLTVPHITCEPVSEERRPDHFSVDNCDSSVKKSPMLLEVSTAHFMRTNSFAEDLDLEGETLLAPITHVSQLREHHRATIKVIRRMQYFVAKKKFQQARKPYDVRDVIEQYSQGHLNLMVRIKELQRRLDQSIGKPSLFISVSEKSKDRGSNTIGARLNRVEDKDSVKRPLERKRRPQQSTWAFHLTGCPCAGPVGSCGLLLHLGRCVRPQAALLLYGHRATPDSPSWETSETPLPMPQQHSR
Protocol: Myocytes were isolated by enzymatic dissociation from a wedge-shaped section of the left ventricular free wall supplied by the left circumflex coronary artery. Cells from the epicardial and midmyocardial regions of the left ventricle were used in this study.
Inward rectifier potassium current (IK), slow delayed rectifier potassium current (IKs), and rapid delayed rectifier potassium current (IKr) were recorded at 37° C. using conventional whole cell voltage clamp configuration.
IK1 was measured using an external solution containing 3 μM ouabain and 5 μM nifedipine to block the sodium-potassium pump and L-type calcium current (ICa,L), respectively. […] 5 μM nifedipine was present in the external solution when IKr was being recorded.
Isolated myocytes were placed in a temperature controlled 0.5 ml chamber (Medical Systems, Greenvale, N.Y.) on the stage of an inverted microscope and superfused at a rate of 2 ml/min. An eight-barrel quartz micromanifold (ALA Scientific Instruments Inc., Westbury, N.Y.) placed 100 μm from the cell was used to apply ranolazine at concentrations of (in μM): 0.1, 0.5, 1.0, 5.0, 10 and 100.0. An Axopatch 1D amplifier (Axon Instruments, Foster City, Calif.) was operated in voltage clamp mode to record currents. […]

[2] = molecular target: late INa (Canis lupus familiaris, UniProt Q865W3); experiment: Late INa, perforated patch voltage clamp in isolated canine left ventricular myocytes; assay type: cell-based; conditions: 500 ms pulses to −30 mV at 1 Hz, read-out: Half-inhibition of late INa
Chain of late INa (Q865W3 1-2013): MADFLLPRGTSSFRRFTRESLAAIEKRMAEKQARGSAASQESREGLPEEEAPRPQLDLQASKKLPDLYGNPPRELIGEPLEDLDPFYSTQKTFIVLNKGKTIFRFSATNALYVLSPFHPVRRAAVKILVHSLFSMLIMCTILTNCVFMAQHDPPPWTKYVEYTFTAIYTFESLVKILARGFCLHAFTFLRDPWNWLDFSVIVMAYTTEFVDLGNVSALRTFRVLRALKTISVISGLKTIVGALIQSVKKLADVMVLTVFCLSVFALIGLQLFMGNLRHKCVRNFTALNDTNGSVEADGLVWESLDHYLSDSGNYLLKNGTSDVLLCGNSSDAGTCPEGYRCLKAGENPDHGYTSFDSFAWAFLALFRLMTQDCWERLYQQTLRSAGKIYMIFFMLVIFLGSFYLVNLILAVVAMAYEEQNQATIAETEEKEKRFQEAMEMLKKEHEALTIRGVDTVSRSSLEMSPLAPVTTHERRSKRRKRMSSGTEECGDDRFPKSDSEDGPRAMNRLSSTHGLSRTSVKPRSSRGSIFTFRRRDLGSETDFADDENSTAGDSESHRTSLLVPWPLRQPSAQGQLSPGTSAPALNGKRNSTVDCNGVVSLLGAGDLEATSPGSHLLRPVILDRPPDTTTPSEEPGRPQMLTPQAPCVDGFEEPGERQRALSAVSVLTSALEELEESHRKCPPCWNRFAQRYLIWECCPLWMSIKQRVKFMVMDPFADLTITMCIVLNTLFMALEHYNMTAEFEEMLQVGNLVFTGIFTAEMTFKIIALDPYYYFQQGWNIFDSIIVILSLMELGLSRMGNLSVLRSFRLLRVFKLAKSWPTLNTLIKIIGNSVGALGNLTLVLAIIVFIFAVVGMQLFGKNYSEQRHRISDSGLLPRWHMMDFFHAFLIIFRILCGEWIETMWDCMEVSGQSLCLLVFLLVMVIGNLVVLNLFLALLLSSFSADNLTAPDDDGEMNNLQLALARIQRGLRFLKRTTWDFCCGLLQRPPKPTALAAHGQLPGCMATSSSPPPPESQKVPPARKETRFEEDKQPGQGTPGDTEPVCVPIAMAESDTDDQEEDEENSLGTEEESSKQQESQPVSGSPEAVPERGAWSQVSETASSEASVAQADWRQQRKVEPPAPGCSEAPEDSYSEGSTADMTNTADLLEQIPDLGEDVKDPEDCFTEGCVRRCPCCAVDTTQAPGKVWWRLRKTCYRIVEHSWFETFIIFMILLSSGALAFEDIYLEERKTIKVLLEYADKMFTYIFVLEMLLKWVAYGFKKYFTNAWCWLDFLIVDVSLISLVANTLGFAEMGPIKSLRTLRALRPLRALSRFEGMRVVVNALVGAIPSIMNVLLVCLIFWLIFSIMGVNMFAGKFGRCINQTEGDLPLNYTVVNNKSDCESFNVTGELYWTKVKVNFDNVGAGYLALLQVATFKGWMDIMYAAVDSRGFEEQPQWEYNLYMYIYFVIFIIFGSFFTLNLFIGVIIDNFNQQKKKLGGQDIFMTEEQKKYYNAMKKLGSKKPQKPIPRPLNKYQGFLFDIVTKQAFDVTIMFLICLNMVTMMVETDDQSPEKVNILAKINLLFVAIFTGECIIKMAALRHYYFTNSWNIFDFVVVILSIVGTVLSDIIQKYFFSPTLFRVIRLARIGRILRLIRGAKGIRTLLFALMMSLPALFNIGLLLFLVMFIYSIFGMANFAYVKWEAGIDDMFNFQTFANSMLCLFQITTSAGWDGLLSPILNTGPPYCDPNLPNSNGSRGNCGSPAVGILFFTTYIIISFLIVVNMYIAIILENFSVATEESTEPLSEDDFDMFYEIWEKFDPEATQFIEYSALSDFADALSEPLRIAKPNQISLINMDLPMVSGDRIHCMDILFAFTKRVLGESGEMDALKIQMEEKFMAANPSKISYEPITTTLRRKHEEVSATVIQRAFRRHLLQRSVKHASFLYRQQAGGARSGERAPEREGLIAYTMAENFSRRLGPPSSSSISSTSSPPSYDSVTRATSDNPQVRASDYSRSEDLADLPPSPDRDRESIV

Structure (SMILES): COc1ccccc1OCC(O)CN1CCN(CC(=O)Nc2c(C)cccc2C)CC1 (racemic) [ranolazine, N-(2,6-dimethylphenyl)-4-[2-hydroxy-3-(2-methoxyphenoxy)propyl]-1-piperazineacetamide]
- Block of IKs tail current ([1]; ranolazine 100 μM, reversed on washout): largely eliminated the tail current; also recorded: almost completely blocked
- IC50 ([1]; read-out: IC50 for inhibition of IKs tail current): 13.4 µM
- IC50 [2]: 21 µM
